pIC50: −log10 of the molar value.
Test: Inhibition of UT-B in wild type CD1 mouse erythrocyte assessed as hemolysis after 10 mins

Compound | pIC50
CCc1ccc(S(=O)(=O)c2nnn3c2nc(N2CCOCC2)c2sccc23)cc1 | 5.25
CC(C)c1ccc(S(=O)(=O)c2nnn3c2nc(NCc2cccc4ccccc24)c2sccc23)cc1 | < 5.60
Cc1ccc(S(=O)(=O)c2nnn3c2nc(N2CCCCC2)c2sccc23)cc1C | < 4.60

From BindingDB's records for doi:10.1021/jm300491y (San Francisco State University, 2012)
